Data taken from patent US20160311795A1, “PYRIMIDINE DIAMINE DERIVATIVES AS INHIBITORS OF CYTOSOLIC HSP90” (CALASIA PHARMACEUTICALS, INC., priority 2012, published 2016).

Tests used:
[1] = system: Akt1 in LnCaP cells; test: Akt1 degradation in cell lysates, ELISA; format: cell-based; conditions: Homo sapiens, 48 h
Protocol: Tumor cell lines (LnCaP) were obtained from the Sanford Burnham Medical Research Institute (La Jolla, Calif.), LnCaP cells were cultured in culture medium (RPMI-glutamax, 10% FCS, 100 units/ml penicillin, and 100 μg/ml streptomycin). Cells were passaged after lifting using 0.25% trypsin/EDTA, and 3×10^5 cells were seeded in each well of six well plates (total volume 2.5 mL/well). After the cells were cultured for 24 h, increasing concentrations of Hsp90 inhibitor were added to wells in triplicate from DMSO-containing stock solutions and mixed by gently by stirring. Final DMSO concentration in all wells was 0.25%. The treated cells were then cultured for 48 h prior to lysate preparation. […] The protein concentration in the cell lysates was determined using the BCA protein assay kit used according to the manufacturer's recommendations. […] Two hundred μL of BCA Protein Assay Kit reagent was added and the mixtures were incubated at 37° C. for 30 min Protein concentrations were determined using a micro-titer plate reader (Model #Synergy HT; BioTek Inc., Winooski, Vt.).
Akt1 levels in the cell lysates were measured using kits from R&D Systems used according to the manufacturer's recommendations. […] Akt1 levels were determined using a micro-titer plate reader (Model #Synergy HT; BioTek Inc., Winooski, Vt.). […] Fluorescence intensities of the dilutions were measured to obtain a standard curve. […]

[2] = system: Akt1; test: Rat CNS biomarker assay, Akt1 ELISA in CNS lysates; format: in vivo; conditions: intraperitoneally, versus vehicle
[3] = system: EGFR in U251MG cells; test: Hsp90 client protein stability, EGFR; format: cell-based, human; conditions: 48 hours, increasing concentrations
[4] = system: mitochondria isolated from U251MG cells; test: Mitochondrial membrane potential in isolated TMRE-loaded mitochondria; format: cell-based, human; conditions: 10 μM or 2 μM, 30° C.
Protocol: Additional experiments were performed to determine the effect of SBI-0640725 on mitochondrial integrity. U251MG cells were treated with tetramethylrhodamine ethyl ester (TMRE), and fluorescence was visualized using fluorescence confocal microscopy (FIG. 16 panel A), or quantitated using a fluorimeter (FIG. 16 panel B) after cells had been treated with increasing concentrations of SBI-0640725 for 48 hours. […] In experiments using isolated mitochondria, mitochondrial membrane potential was determined as a measure of mitochondrial integrity. TMRE-loaded mitochondria isolated from U251MG cells were treated with either 10 μM (left bar of the pair in FIG. 17) or 2 μM (right bar of the pair in FIG. 17) SBI-0640725 while continually monitoring changes in fluorescence intensity at 30° C.

[5] = system: Hsp70 in MBA-MD-231 cells; test: Hsp70 induction, ELISA; format: cell-based; conditions: MBA-MD-231, 48 hours
Protocol: Experiments were performed using U251 MG and MBA-MD-231 cells to also measure induction of Hsp 70 in response to treatment with SBI-0640725. […] For Hsp70 induction measurements, cells were treated with increasing concentrations of SBI-0640725 for 48 hours, and Hsp70 levels were measured in cell lysates using ELISA.

Row | Compound | IC50 [1] [µM] | Akt1 level in CNS tissues [2] | level of the client protein EGFR [3] | mitochondrial membrane potential [4] | induction of Hsp70 [5]
1 | COc1c(C)cnc(CN(CCc2ccccc2)c2cc(Cl)nc(N)n2)c1C [SBI-0639353, 6-Chloro-N4-((4-methoxy-3,5-dimethylpyridin-2-yl)methyl)-N4-phenethylpyrimidine-2,4-diamine] | 5.4 | a decrease in its levels compared to vehicle treated rats |  |  | 
2 | COc1c(C)cnc(CN(CCc2ccc(F)cc2)c2cc(Cl)nc(N)n2)c1C [SBI-0640725] |  |  | observed to decrease | mitochondrial membrane potential decreased | caused induction of Hsp70
